We go through 3 compounds from ChEMBL document CHEMBL1124085, “Flavins as potential antimalarials. 1. 10-(Halophenyl)-3-methylflavins” (1988).

What all share (type): functional
Assay [1] has as its system Mus musculus. As to the kind of experiment: Oral antimalarial activity against Plasmodium vinckei in mice (Mus musculus) measured as % cured and increase in MST (days) at 50 mg/kg dose.
In assay [2] the test system is Mus musculus. The assay is described as follows: Oral antimalarial activity against Plasmodium vinckei in mice (Mus musculus) measured as % cured and increase in MST (days) at 75 mg/kg dose.
In assay [3] the test system is Mus musculus. The assay is described as follows: Oral antimalarial activity against Plasmodium vinckei vinckei in mice (Mus musculus) measured as increase in mean survival time at 100 mg/kg dose.
Assay [4] relates to Mus musculus. The assay is described as follows: Parenteral antimalarial activity against Plasmodium vinckei in mice (Mus musculus) measured as % cured and increase in MST (days) at 15 mg/kg dose.
The subject of assay [5] is Mus musculus. As to the kind of experiment: Oral antimalarial activity against Plasmodium vinckei vinckei in mice (Mus musculus) measured as % cured and increase in MST (days) at 150 mg/kg dose.
In assay [6] the test system is Mus musculus. The assay is described as follows: Oral antimalarial activity against Plasmodium vinckei vinckei in mice (Mus musculus) measured as increase in mean survival time at 75 mg/kg dose.
For assay [7], the system named is Mus musculus. As to the kind of experiment: Parenteral antimalarial activity against Plasmodium vinckei vinckei in mice (Mus musculus) measured as % cured and increase in MST (days) at 10 mg/kg dose.
For assay [8], the system named is Mus musculus. As to the kind of experiment: Parenteral antimalarial activity against Plasmodium vinckei in mice (Mus musculus) measured as % cured and increase in MST (days) at 30 mg/kg dose.
In assay [9] the test system is Mus musculus. As to the kind of experiment: Parenteral antimalarial activity against Plasmodium vinckei in mice (Mus musculus) measured as % cured and increase in MST (days) at 25 mg/kg dose.
Assay [10] deals with Mus musculus. As to the kind of experiment: Oral antimalarial activity against Plasmodium vinckei in mice (Mus musculus) measured as increase in mean survival time at 25 mg/kg dose.
Assay [11] deals with Mus musculus. The assay is described as follows: Oral antimalarial activity against Plasmodium vinckei in mice (Mus musculus) measured as % cured and increase in MST (days) at 25 mg/kg dose.
The test system of assay [12] is Mus musculus. As to the kind of experiment: Oral antimalarial activity against Plasmodium vinckei vinckei in mice (Mus musculus) measured as % cured and increase in MST (days) at 100 mg/kg dose.
Assay [13] concerns Mus musculus. As to the kind of experiment: Oral antimalarial activity against Plasmodium vinckei in mice (Mus musculus) measured as increase in mean survival time at 150 mg/kg dose.
Assay [14] has as its system Mus musculus. As to the kind of experiment: Parenteral antimalarial activity against Plasmodium vinckei vinckei in mice (Mus musculus) measured as % cured and increase in MST (days) at 25 mg/kg dose.
Assay [15] concerns Mus musculus. The assay is described as follows: Parenteral antimalarial activity against Plasmodium vinckei vinckei in mice (Mus musculus) measured as % cured and increase in MST (days) at 20 mg/kg dose.
For assay [16], the system named is Mus musculus. As to the kind of experiment: Parenteral antimalarial activity against Plasmodium vinckei vinckei in mice (Mus musculus) measured as % cured and increase in MST (days) at 30 mg/kg dose.
Assay [17] relates to Mus musculus. As to the kind of experiment: Oral antimalarial activity against Plasmodium vinckei vinckei in mice (Mus musculus) measured as increase in mean survival time at 50 mg/kg dose.
In assay [18] the test system is Mus musculus. As to the kind of experiment: Parenteral antimalarial activity against Plasmodium vinckei vinckei in mice (Mus musculus) measured as increase in mean survival time at 30 mg/kg dose.
The subject of assay [19] is Mus musculus. The assay is described as follows: Parenteral antimalarial activity against Plasmodium vinckei vinckei in mice (Mus musculus) measured as increase in mean survival time at 20 mg/kg dose.
Assay [20] deals with Mus musculus. The assay is described as follows: Parenteral antimalarial activity against Plasmodium vinckei vinckei in mice (Mus musculus) measured as increase in mean survival time at 25 mg/kg dose.
Assay [21] concerns Mus musculus. As to the kind of experiment: Parenteral antimalarial activity against Plasmodium vinckei in mice (Mus musculus) measured as increase in mean survival time at 15 mg/kg dose.
Assay [22] relates to Mus musculus. As to the kind of experiment: Parenteral antimalarial activity against Plasmodium vinckei in mice (Mus musculus) measured as increase in mean survival time at 10 mg/kg dose.

SMILES strings stand for the structures.

Regarding `O=c1nc2n(-c3ccc(Cl)cc3)c3ccccc3nc-2c(=O)[nH]1`, the Cured in [1], in [2], in [4], in [5], in assay [7] and in assay [11] was 0% in each case. The Cured in [12], in [14], in [15] and in assay [16] was 0% each time. The MST in assay [3], in assay [4], in assay [6], in assay [7], in assay [8] and in assay [9] was 0 days throughout. For the same compound, the MST in assay [10], in assay [13], in assay [15] and in assay [17] was 0 days each time.

In the case of `Cn1c(=O)nc2n(-c3ccc(Cl)cc3Cl)c3ccccc3nc-2c1=O`, the Cured in [1] was 0%; in [2], 40%; in assay [4] it was 0%; in [5] it was 60%; in assay [7], 0%; in [11] it was 0%. Further, the Cured in assay [12] turned out to be 80%; in [14] it was 0%; in assay [15], 0%; in [16], 0%. The MST was 1.5 days in assay [3]; 1 days in assay [6]; -1 days in assay [18]; 0 days in assay [19]; -1.2 days in assay [20]; 0 days in assay [10]. Also, the MST in assay [13] is 1.5 days; in [21], 0.5 days; in assay [22], 1.7 days; in [17] it was 1.3 days.

Turning to `Cn1c(=O)nc2n(-c3ccc(Cl)c(Cl)c3)c3ccccc3nc-2c1=O`, the Cured in assay [1] is listed as 0%; in [2], 0%; in [4], 60%; in [5], 40%; in assay [7], 0%; in assay [11], 0%. For the same compound, the Cured in [12] came to 0%; in [14], 80%; in assay [15], 100%; in [16] it was 60%. Besides, the MST in assay [3] was 0.5 days; in [4], 0.5 days; in assay [6], 0.5 days; in assay [7], 0.5 days; in assay [8], 1 days; in assay [9] it was 0 days. In addition, the MST in assay [10] and in assay [17] was 0 days throughout.
